For this assay, the system named is human Peripheral Blood Mononuclear Cell (PMBC). The assay is described as follows: PBMC assay: cytokine (IFN-α) stimulation at 24 hours. It counts as cell-based. The following applies: IFN-α in supernatant (Luminex), three fold above background; for minimal effective concentration: read-out: MEC = minimum concentration for induction of IFN-alpha = 3-fold over background. The method, then:
Assays were conducted to determine cytokine stimulation at 24 hours from human Peripheral Blood Mononuclear Cell (PMBC) using the compounds of the present invention. The assays were run in duplicate, with 8-point, half-log dilution curves. The compounds of the present invention were diluted from 10 mM DMSO solution. Cell supernatants are assayed directly for IFNα and 1:10 dilution for TNFα. The assays were performed in a similar fashion as described in Bioorg. Med. Chem. Lett. 16, 4559, (2006). Specifically, cryo-preserved PBMCs were thawed and seeded 96 well plates with 750,000 cells/well in 190 μL/well cell media. The PBMCs were then incubated for 1 hour at 37° C. at 5% CO2. Then, the compounds of the present invention were added in 10 μL cell media at 8 point, half-log dilution titration. The plates were incubated at 37° C. and 5% CO2 for 24 hours and then spinned at 1200 rpm for 10 min, which was followed by collecting supernatant and storing the same at −80° C. Cytokine secretion was assayed with Luminex® (brand of Multiplexing bead-based platform, Luminx® Corporation Austin Tex. USA) and Upstate Biosciences® (Upstate Biosciences®, Charlottesville, Va., USA) multi-plex kits, using a Luminex® analysis instrument. IFN MEC value for a compound was the minimum concentration at which IFN-α production stimulated by the compound reached three fold above background, as determined using the assay method above.

Read-outs that look alike come from different tables or passages of the source.

As for `COCCOc1nc(N)c2[nH]c(=O)n(Cc3cc(-c4cccc(CN5CCCC5)c4)ccc3Cl)c2n1` [AA], for the setting “Homo sapiens, PBMC, 24 h”, the minimal effective concentration is 0.1 to 1 µM. Regarding `COCCOc1nc(N)c2[nH]c(=O)n(Cc3cc(-c4ccc(CN5CCCC5)cc4)ccc3Cl)c2n1` [AB], under “Homo sapiens, PBMC, 24 h”, the minimal effective concentration fell in the range of 0.1 to 1 µM. The same measure, in the same setting: the figure for `COCCOc1nc(N)c2[nH]c(=O)n(Cc3ccc(-c4ccc(CN5CCCC5)cn4)cc3)c2n1` [AC] is 0.001 µM; for `COCCOc1nc(N)c2[nH]c(=O)n(Cc3ccc(-c4ccc(CN5CCCC5)nc4)cc3)c2n1` [AD] it is 0.001 µM; for `CCN1CCc2ncc(-c3ccc(Cn4c(=O)[nH]c5c(N)nc(OCCOC)nc54)cc3)cc2C1` [AE] it is 0.001 µM. Consider `COCCOc1nc(N)c2[nH]c(=O)n(Cc3ccc(-c4ccc(CN5CCCC5)cc4)nc3)c2n1` [AF], for which, where the note is “Homo sapiens, PBMC, 24 h”, the minimal effective concentration was determined as 0.001 µM. Consider `COCCOc1nc(N)c2[nH]c(=O)n(Cc3ccc(-c4cccc(CN5CCCC5)c4)nc3)c2n1` [AG], for which the minimal effective concentration (Homo sapiens, PBMC, 24 h) came out at 0.001 µM. Take `COCCOc1nc(N)c2[nH]c(=O)n(Cc3ccc(-c4ccc(CN5CCCC5)cc4)cc3Cl)c2n1` [AH]: under “Homo sapiens, PBMC, 24 h”, the minimal effective concentration worked out at 0.001 µM.

Regarding `COCCOc1nc(N)c2[nH]c(=O)n(Cc3ccc(-c4ccc(CN5CCCC5)cc4)c(Cl)c3)c2n1` [AI], the minimal effective concentration (Homo sapiens, PBMC, 24 h) came out at 0.001 µM. `COCCOc1nc(N)c2[nH]c(=O)n(Cc3ccc(-c4ccc(CN5CCCC5)cc4)cc3F)c2n1` [AJ]: the minimal effective concentration (Homo sapiens, PBMC, 24 h) was found to be 0.001 µM. On to `COCCOc1nc(N)c2[nH]c(=O)n(Cc3ccc(-c4ccc(CN5CCCC5)cc4)cc3C#N)c2n1` [AK], for which the minimal effective concentration (Homo sapiens, PBMC, 24 h) is 0.001 µM. `COCCOc1nc(N)c2[nH]c(=O)n(Cc3ccc(-c4ccc(CN5CCCC5)cc4)c(F)c3)c2n1` [AL]: the minimal effective concentration (Homo sapiens, PBMC, 24 h) was 0.001 µM. As for `COCCOc1nc(N)c2[nH]c(=O)n(Cc3ccc(-c4cc(CN5CCCC5)cc(C(F)(F)F)c4)cc3)c2n1` [AM], the minimal effective concentration (Homo sapiens, PBMC, 24 h) was in the range of 0.01 to 0.099 µM. Consider `COCCOc1nc(N)c2[nH]c(=O)n(Cc3ccc(-c4ccc(CN5CCCC5)cc4)c(C(F)(F)F)c3)c2n1` [AN], for which the minimal effective concentration (Homo sapiens, PBMC, 24 h) stood at 0.001 µM.

On to `COCCOc1nc(N)c2[nH]c(=O)n(Cc3ccc(-c4cccc(CN5CCCC5)c4)c(C(F)(F)F)c3)c2n1` [AO], for which the minimal effective concentration (Homo sapiens, PBMC, 24 h) was determined as 0.001 µM. Same read-out and setting: the figure for `COCCOc1nc(N)c2[nH]c(=O)n(Cc3ccc(-c4ccc(CCCN5CCCC5)nc4)cc3)c2n1` [AP] is 0.001 µM; for `Nc1nc(OCC2CCOCC2)nc2c1[nH]c(=O)n2Cc1ccc(-c2cccc(CN3CCCC3)c2)cc1` [AQ] it is 0.001 µM. Same read-out and setting: the figure for `Nc1nc(OCC2CCOCC2)nc2c1[nH]c(=O)n2Cc1ccc(-c2ccc(CN3CCCC3)cc2)cc1` [AR] is 0.001 µM; for `Nc1nc(OCC2CCOCC2)nc2c1[nH]c(=O)n2Cc1ccc(-c2ccc(CN3CCCC3)cc2)c(C(F)(F)F)c1` [AS] it is 0.001 µM; for `Nc1nc(OCC2CCOCC2)nc2c1[nH]c(=O)n2Cc1ccc(-c2cccc(CN3CCCC3)c2)c(C(F)(F)F)c1` [AT] it is 0.001 µM. On the same count and under the same terms, the figure for `Nc1nc(OCC2CCOCC2)nc2c1[nH]c(=O)n2Cc1ccc(-c2ccc(CN3CCCC3)nc2)cc1` [AU] is 0.001 µM. As for `Nc1nc(OCC2CCOCC2)nc2c1[nH]c(=O)n2Cc1ccc(-c2ccc(CN3CCCC3)cn2)cc1` [AV], the minimal effective concentration (Homo sapiens, PBMC, 24 h) came to 0.001 µM.

Consider `COCCOc1cc2c([nH]c(=O)n2Cc2ccc(-c3cccc(CN4CCCC4)c3)cc2)c(N)n1` [AW], for which the minimal effective concentration fell in the range of 0.001 to 0.009 µM. As to `COCCOc1nc(N)c2[nH]c(=O)n(Cc3ccc(-c4ccc(CN5CCCC5)cc4)cc3)c2n1` [AX], the “MEC = minimum concentration for induction of IFN-alpha = 3-fold over background” value is “b (b: 1 nM-9 nM)”. For `COCCOc1nc(N)c2[nH]c(=O)n(Cc3ccc(-c4ccc(CN5CCCC5)cc4)cc3)c2c1Cl` [AY], the minimal effective concentration (Homo sapiens, PBMC, 24 h) lay in the range of 0.01 to 0.099 µM.

For the compound `Nc1nc(OCC2CCOCC2)cc2c1[nH]c(=O)n2Cc1ccc(-c2ccc(CN3CCCC3)cc2)cc1` [AZ], the minimal effective concentration (Homo sapiens, PBMC, 24 h) was 0.001 µM.

Turning to `CCCCOc1nc(N)c2[nH]c(=O)n(Cc3cccc(-c4ccccc4CN4CCCC4)c3)c2n1` [A], the minimal effective concentration (Homo sapiens, PBMC, 24 h) was 0.1 to 1 µM. Same read-out and setting: the figure for `Nc1nc(OCC2CCOCC2)cc2c1[nH]c(=O)n2Cc1ccc(-c2ccc(CN3CCCC3)nc2)cc1` [BA] is 0.001 µM. For the compound `Nc1nc(OCC2CCOCC2)cc2c1[nH]c(=O)n2Cc1ccc(-c2csc(CN3CCCC3)n2)cc1` [BB], the minimal effective concentration (Homo sapiens, PBMC, 24 h) fell in the range of 0.001 to 0.009 µM. Same read-out and setting: next, `CCCCOc1cc2c([nH]c(=O)n2Cc2ccc(-c3ccc(CN4CCCC4)cc3)cc2)c(N)n1` [BC]: 0.001 µM; `Nc1nc(OCC2CCOCC2)cc2c1[nH]c(=O)n2Cc1ccc(-c2cccc(CN3CCCC3)c2)nc1` [BD]: 0.001 µM.

Regarding `Nc1nc(OCC2CCOCC2)cc2c1[nH]c(=O)n2Cc1ccc(-c2ccc(CN3CCCC3)cc2)nc1` [BE], for the setting “Homo sapiens, PBMC, 24 h”, the minimal effective concentration is 0.001 µM. Still for that read-out and setting: next, `CCCCOc1cc2c([nH]c(=O)n2Cc2ccc(-c3cccc(CN4CCCC4)c3)nc2)c(N)n1` [BF]: 0.001 µM. `CCCCOc1cc2c([nH]c(=O)n2Cc2ccc(-c3ccc(CN4CCCC4)cc3)nc2)c(N)n1` [BG]: the minimal effective concentration (Homo sapiens, PBMC, 24 h) came to 0.001 µM. The same measure, in the same setting: next, `CCCCOc1nc(N)c2[nH]c(=O)n(Cc3cccc(-c4cccc(CN5CCCC5)c4)c3)c2n1` [B]: 0.01 to 0.099 µM; `CCCCOc1nc(N)c2[nH]c(=O)n(Cc3cccc(-c4ccc(CN5CCCC5)cc4)c3)c2n1` [C]: 0.001 to 0.009 µM; `CCCCOc1nc(N)c2[nH]c(=O)n(Cc3ccc(-c4ccccc4CN4CCCC4)cc3)c2n1` [D]: 0.001 µM. As for `CCCCOc1nc(N)c2[nH]c(=O)n(Cc3ccc(-c4cccc(CN5CCCC5)c4)cc3)c2n1` [E], the minimal effective concentration (Homo sapiens, PBMC, 24 h) was determined as 0.001 µM. For the compound `CCCCOc1nc(N)c2[nH]c(=O)n(Cc3cnc(-c4ccc(CN5CCCC5)cc4)s3)c2n1` [Example M], the minimal effective concentration (Homo sapiens, PBMC, 24 h) turned out to be 0.001 µM.

Turning to `CCCCOc1nc(N)c2[nH]c(=O)n(Cc3ccc(-c4ccc(CN5CCCC5)cc4)cc3)c2n1` [F], under “Homo sapiens, PBMC, 24 h”, the minimal effective concentration is 0.001 µM. The same measure, in the same setting: next, `CCCCOc1nc(N)c2[nH]c(=O)n(Cc3ccc(-c4cccc(CN5CCCC5)c4)nc3)c2n1` [G]: 0.001 µM; `CCCCOc1nc(N)c2[nH]c(=O)n(Cc3ccc(-c4ccc(CN5CCCC5)cc4)nc3)c2n1` [H]: 0.001 µM. On the same count and under the same terms, next, `CCCCOc1nc(N)c2[nH]c(=O)n(Cc3ccnc(-c4ccc(CN5CCCC5)cc4)c3)c2n1` [I]: 0.001 µM. The same measure, in the same setting: the figure for `CCCCOc1nc(N)c2[nH]c(=O)n(Cc3ccc(-c4ccc(CN5CCCC5)cc4)cn3)c2n1` [J] is 0.001 µM; for `CCCCOc1nc(N)c2[nH]c(=O)n(Cc3ccc(-c4cccc(CN5CCCC5)c4)cn3)c2n1` [K] it is 0.001 µM.

As for `CCCCOc1nc(N)c2[nH]c(=O)n(Cc3cnc(-c4cccc(CN5CCCC5)c4)s3)c2n1` [L], under “Homo sapiens, PBMC, 24 h”, the minimal effective concentration stood at 0.001 µM.

On to `CCCCOc1nc(N)c2[nH]c(=O)n(Cc3ccc(-c4ccc(CN5CCCC5)nc4)cc3)c2n1` [N], for which the minimal effective concentration (Homo sapiens, PBMC, 24 h) worked out at 0.001 µM. `CCCCOc1nc(N)c2[nH]c(=O)n(Cc3ccc(-c4ccc(CN5CCCC5)cn4)cc3)c2n1` [O]: the minimal effective concentration (Homo sapiens, PBMC, 24 h) stood at 0.001 µM. Still for that read-out and setting: the figure for `CCCCOc1nc(N)c2[nH]c(=O)n(Cc3ccc(-c4nc(CN5CCCC5)cs4)cc3)c2n1` [P] is 0.001 µM. Same read-out and setting: the figure for `CCCCOc1nc(N)c2[nH]c(=O)n(Cc3ccc(-c4ncc(CN5CCCC5)s4)cc3)c2n1` [Q] is 0.001 µM; for `CCCCOc1nc(N)c2[nH]c(=O)n(Cc3ccc(-c4cc(CN5CCCC5)ccc4OC)cc3)c2n1` [R] it is 0.001 µM.

With `CCCCOc1nc(N)c2[nH]c(=O)n(Cc3ccc(-c4ccc(CN5CCCC5)c(F)c4)cc3)c2n1` [S], where the note is “Homo sapiens, PBMC, 24 h”, the minimal effective concentration was determined as 0.001 µM. The same measure, in the same setting: the figure for `COCCOc1nc(N)c2[nH]c(=O)n(Cc3ccc(-c4cccc(CN5CCCC5)c4)cc3)c2n1` [T] is 0.001 µM; for `COCCOc1nc(N)c2[nH]c(=O)n(Cc3ccc(-c4ccc(CN5CCCC5)cc4)cc3)c2n1` [U] it is 0.001 µM.

`COCCOc1nc(N)c2[nH]c(=O)n(Cc3ccc(-c4ccc(C(C)N5CCCC5)cc4)cc3)c2n1` (centres unmarked) [V]: under “Homo sapiens, PBMC, 24 h”, the minimal effective concentration was 0.001 µM. Same read-out and setting: the figure for `COCCOc1nc(N)c2[nH]c(=O)n(Cc3ccc(-c4cccc(CN5CCCCC5)c4)cc3)c2n1` [W] is 0.001 µM; for `COCCOc1nc(N)c2[nH]c(=O)n(Cc3ccc(-c4ccc(CN5CCOCC5)cc4)cc3)c2n1` [X] it is 0.001 µM; for `COCCOc1nc(N)c2[nH]c(=O)n(Cc3ccc(-c4cccc(CN5CCOCC5)c4)cc3)c2n1` [Y] it is 0.001 to 0.009 µM. Still for that read-out and setting: next, `COCCOc1nc(N)c2[nH]c(=O)n(Cc3ccc(-c4cccc(CN5CCN(C)CC5)c4)cc3)c2n1` [Z]: 0.001 µM.

Values taken from patent US8507507B2, “Modulators of toll-like receptors” (Gilead Sciences, Inc., priority 2009, dated 2013).
